For 18 molecules, Dose and IC50 results are on record in ChEMBL document CHEMBL1127148, “The squalestatins: novel inhibitors of squalene synthase. The optimal C1 chain-length requirements” (Bioorg Med Chem Lett, 1993).

SMILES strings stand for the structures.

As a reminder, the IC50 is the concentration that gives 50% inhibition. A higher IC50 goes with weaker potency.

In one assay the test system is Rattus norvegicus. In words: Tested for daily dose at which compound shows 50% reduction in serum cholesterol levels after oral administration. The class given is functional.
As to `C=C(CC[C@]12O[C@H](C(=O)O)[C@@](O)(C(=O)O)[C@](C(=O)O)(O1)[C@H](OC(=O)/C=C/[C@@H](C)C[C@@H](C)CC)[C@H]2O)[C@H](OC(C)=O)[C@@H](C)Cc1ccccc1`, the Dose amounted to 10 mg/kg.

A further assay concerns the target T1, Squalene synthase (Rattus norvegicus, UniProt Q02769).
T1 sequence (Q02769 whole entry): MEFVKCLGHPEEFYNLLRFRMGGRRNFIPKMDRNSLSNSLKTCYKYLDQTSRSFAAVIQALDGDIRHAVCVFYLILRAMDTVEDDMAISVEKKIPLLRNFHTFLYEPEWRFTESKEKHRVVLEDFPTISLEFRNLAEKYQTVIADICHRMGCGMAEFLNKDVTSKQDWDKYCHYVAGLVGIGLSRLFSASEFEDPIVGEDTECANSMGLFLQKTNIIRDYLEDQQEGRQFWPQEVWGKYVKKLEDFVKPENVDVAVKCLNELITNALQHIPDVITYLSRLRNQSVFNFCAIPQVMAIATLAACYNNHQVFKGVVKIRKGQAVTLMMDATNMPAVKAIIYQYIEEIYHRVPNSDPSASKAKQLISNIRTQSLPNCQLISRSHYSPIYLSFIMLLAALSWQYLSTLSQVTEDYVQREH
In words: Tested in vitro for the inhibition of Squalene synthase activity, measured using juvenile male rat liver microsomes. Also on record: species or system Microsome.
`C=C(CC[C@]12O[C@H](C(=O)O)[C@@](O)(C(=O)O)[C@](C(=O)O)(O1)[C@H](OC(=O)CC[C@@H](C)C[C@@H](C)CC)[C@H]2O)[C@H](O)[C@@H](C)Cc1ccccc1` displayed an IC50 of 2 nM.
`CC[C@H](C)C[C@H](C)CCC(=O)O[C@@H]1[C@@H](O)[C@@]2(C/C=C(\C)[C@H](O)[C@@H](C)Cc3ccccc3)O[C@H](C(=O)O)[C@@](O)(C(=O)O)[C@]1(C(=O)O)O2` gave an IC50 of 17 nM.
On to `CC[C@H](C)C[C@H](C)CCC(=O)O[C@@H]1[C@@H](O)[C@@]2(CCC(C)C(=O)[C@@H](C)Cc3ccccc3)O[C@H](C(=O)O)[C@@](O)(C(=O)O)[C@]1(C(=O)O)O2` (stereo in doubt), for which the IC50 is 16 nM.
`CC[C@H](C)C[C@H](C)CCC(=O)O[C@@H]1[C@@H](O)[C@@]2(CCC(=O)[C@H](O)[C@@H](C)Cc3ccccc3)O[C@H](C(=O)O)[C@@](O)(C(=O)O)[C@]1(C(=O)O)O2` had an IC50 of 5 nM.
Molecule `CC[C@H](C)C[C@H](C)CCC(=O)O[C@@H]1[C@@H](O)[C@@]2(CCC(O)[C@H](O)[C@@H](C)Cc3ccccc3)O[C@H](C(=O)O)[C@@](O)(C(=O)O)[C@]1(C(=O)O)O2` (stereo partly drawn) showed an IC50 of 4 nM.
On the same count and under the same terms, for `CC[C@H](C)C[C@H](C)CCC(=O)O[C@@H]1[C@@H](O)[C@@]2(CC/C(C)=C/[C@@H](C)Cc3ccccc3)O[C@H](C(=O)O)[C@@](O)(C(=O)O)[C@]1(C(=O)O)O2` the value was 63 nM.
Still for that read-out and setting: for `CC[C@H](C)C[C@H](C)CCC(=O)O[C@@H]1[C@@H](O)[C@@]2(CCC(C)C(=O)[C@@H](C)Cc3ccccc3)O[C@H](C(=O)O)[C@@](O)(C(=O)O)[C@]1(C(=O)O)O2` (single isomer, unassigned; isomer 2) the value was 130 nM.

For a further assay, the target named is T1, Squalene synthase. In words: Inhibition of Squalene synthase activity in juvenile male rat liver microsomes. Also on record: species or system Microsome. (Liver microsomes are vesicles of endoplasmic reticulum, rich in cytochrome P450 enzymes.)
Regarding `CC[C@H](C)C[C@H](C)CCC(=O)O[C@@H]1[C@@H](O)[C@@]2(CCCC(=O)CCc3ccccc3)O[C@H](C(=O)O)[C@@](O)(C(=O)O)[C@]1(C(=O)O)O2`, the IC50 was determined as 56 nM.
Molecule `CC[C@H](C)C[C@H](C)CCC(=O)O[C@@H]1[C@@H](O)[C@@]2(CCC(C)C(=O)CCc3ccccc3)O[C@H](C(=O)O)[C@@](O)(C(=O)O)[C@]1(C(=O)O)O2` (stereo partly drawn) came in with an IC50 of 48 nM.
`CC[C@H](C)C[C@H](C)CCC(=O)O[C@@H]1[C@@H](O)[C@@]2(CCCC(=O)CCCc3ccccc3)O[C@H](C(=O)O)[C@@](O)(C(=O)O)[C@]1(C(=O)O)O2` came in with an IC50 of 152 nM.
For the molecule `CC[C@H](C)C[C@H](C)CCC(=O)O[C@@H]1[C@@H](O)[C@@]2(CCCC(=O)C(C)Cc3ccccc3)O[C@H](C(=O)O)[C@@](O)(C(=O)O)[C@]1(C(=O)O)O2` (stereo partly drawn), inhibition was half-maximal at 29 nM (IC50).
In the case of `CCCC(=O)CCC[C@]12O[C@H](C(=O)O)[C@@](O)(C(=O)O)[C@](C(=O)O)(O1)[C@H](OC(=O)CC[C@@H](C)C[C@@H](C)CC)[C@H]2O`, the IC50 is greater than 500 nM.
Still for that read-out and setting: for `C=C(CC[C@]12O[C@H](C(=O)O)[C@@](O)(C(=O)O)[C@](C(=O)O)(O1)[C@H](OC(=O)/C=C/[C@@H](C)C[C@@H](C)CC)[C@H]2O)[C@H](O)[C@@H](C)Cc1ccccc1` the value was 5 nM; for `CC[C@H](C)C[C@H](C)CCC(=O)O[C@@H]1[C@@H](O)[C@@]2(CCO)O[C@H](C(=O)O)[C@@](O)(C(=O)O)[C@]1(C(=O)O)O2`, greater than 500 nM.
`CC[C@H](C)C[C@H](C)CCC(=O)O[C@@H]1[C@@H](O)[C@@]2(CCC(C)=O)O[C@H](C(=O)O)[C@@](O)(C(=O)O)[C@]1(C(=O)O)O2` had an IC50 of 470 nM. This counts as sub-micromolar.
Take `CC[C@H](C)C[C@H](C)CCC(=O)O[C@@H]1[C@@H](O)[C@@]2(CCCC(=O)Cc3ccccc3)O[C@H](C(=O)O)[C@@](O)(C(=O)O)[C@]1(C(=O)O)O2`: the IC50 is greater than 500 nM.
As to `CCCCCCC(=O)CCC[C@]12O[C@H](C(=O)O)[C@@](O)(C(=O)O)[C@](C(=O)O)(O1)[C@H](OC(=O)CC[C@@H](C)C[C@@H](C)CC)[C@H]2O`, the IC50 was greater than 500 nM.
